Measured values reported in patent US20220160716A1 (SORBONNE UNIVERSITE, priority 2019, published 2022).

Columns and labels:
[1] = target: T1, ABCB4-I541F (Homo sapiens, UniProt P21439, I541F); test: ABCB4-mediated phosphatidylcholine secretion, HEK cells expressing ABCB4-I541F; assay type: cell-based; parameters: The subcloning of wild type (WT) ABCB4, isoform A (NM_000443.3), into pcDNA3 vector has been described; expressed in transfected cells; host or cells: HEK-293 (immunoblot, PC secretion); conditions: 25 μM, maximal activity = cells expressing ABCB4-WT, vehicle 7.1±0.8%
T1 sequence (P21439 1-1279 isoform P21439-2 I541F): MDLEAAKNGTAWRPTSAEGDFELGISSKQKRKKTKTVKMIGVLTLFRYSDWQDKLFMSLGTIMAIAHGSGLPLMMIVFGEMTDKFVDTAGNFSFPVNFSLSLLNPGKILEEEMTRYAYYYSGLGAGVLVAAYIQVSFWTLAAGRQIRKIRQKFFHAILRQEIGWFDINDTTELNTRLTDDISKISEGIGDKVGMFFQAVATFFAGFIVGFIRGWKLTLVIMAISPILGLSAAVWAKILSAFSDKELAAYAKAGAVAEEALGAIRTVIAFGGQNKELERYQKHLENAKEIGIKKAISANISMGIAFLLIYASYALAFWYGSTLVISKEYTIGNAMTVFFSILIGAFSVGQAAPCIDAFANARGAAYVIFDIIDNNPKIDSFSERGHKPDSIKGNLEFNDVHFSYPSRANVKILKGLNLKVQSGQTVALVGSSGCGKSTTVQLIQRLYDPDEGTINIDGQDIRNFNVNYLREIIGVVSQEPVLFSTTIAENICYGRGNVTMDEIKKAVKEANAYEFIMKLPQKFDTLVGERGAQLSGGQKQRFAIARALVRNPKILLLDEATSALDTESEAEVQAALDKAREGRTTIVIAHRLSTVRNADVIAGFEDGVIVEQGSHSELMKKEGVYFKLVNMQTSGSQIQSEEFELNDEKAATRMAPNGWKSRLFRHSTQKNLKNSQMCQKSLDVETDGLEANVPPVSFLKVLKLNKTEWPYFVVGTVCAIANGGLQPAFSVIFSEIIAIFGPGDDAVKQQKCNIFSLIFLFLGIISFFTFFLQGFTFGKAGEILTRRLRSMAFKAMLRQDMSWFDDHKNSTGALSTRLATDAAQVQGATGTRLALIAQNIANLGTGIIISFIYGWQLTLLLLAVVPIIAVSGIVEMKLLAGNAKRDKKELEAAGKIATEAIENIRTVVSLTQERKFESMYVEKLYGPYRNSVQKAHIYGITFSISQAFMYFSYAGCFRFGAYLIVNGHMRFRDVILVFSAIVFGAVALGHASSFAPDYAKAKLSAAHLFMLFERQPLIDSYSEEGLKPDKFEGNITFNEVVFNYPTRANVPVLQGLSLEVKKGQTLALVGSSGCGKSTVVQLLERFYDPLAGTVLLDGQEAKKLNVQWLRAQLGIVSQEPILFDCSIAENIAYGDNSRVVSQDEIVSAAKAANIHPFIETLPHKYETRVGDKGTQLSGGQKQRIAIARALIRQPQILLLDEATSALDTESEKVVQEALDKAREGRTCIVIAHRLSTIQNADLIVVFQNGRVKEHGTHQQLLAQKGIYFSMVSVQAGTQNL
Procedure: (§1) Cyclosporin A (CsA) was from Santa Cruz Biotechnologies (Dallas, Tex.). […] Each compound was solubilized in dimethylsulfoxide (DMSO) as 1000× concentrated stock solutions in order to treat cells with 5 μM to 100 μM final concentrations, using DMSO as control vehicle at the same dilution (0.1% DMSO for all conditions). The cells were treated 24 hours post-transfection with these drugs during 16 hours, except for the viability assays for which cells were treated during three days. After drug treatment, cells were used for immunoanalyses, cell viability assays or PC secretion assays.
(§2) HEK cells were seeded in 0.01% poly-L-lysine (Sigma) pre-coated 6-well plates of 10 cm^2 area per well (1.3×10^6 cells per well). After transient transfection of the empty vector (control), plasmids encoding ABCB4-WT or its variants, cells were incubated during 24 hours at 37° C. in serum-free medium supplemented with 0.5 mM sodium taurocholate (Sigma) and 0.02% fatty acid-free bovine serum albumin (Sigma). Then, the secreted PC was quantified from the collected media using a fluoro-enzymatic assay previously described (12). Each condition was analysed in triplicate, after background subtraction, and results were normalized to the expression levels of ABCB4 determined by immunoblots of the corresponding cell lysates.

[2] = target: CK1; test: Protein kinase catalytic activity assay, CK1; assay type: biochemical; conditions: read-out: IC50 of protein kinases, CK1
[3] = target: T2, ABCB4-L556R (Homo sapiens, UniProt P21439, L556R); test: ABCB4-mediated phosphatidylcholine secretion, HEK cells expressing ABCB4-L556R; assay type: cell-based; parameters: The subcloning of wild type (WT) ABCB4, isoform A (NM_000443.3), into pcDNA3 vector has been described; expressed in transfected cells; host or cells: HEK-293 (immunoblot, PC secretion); conditions: 25 μM
T2 sequence (P21439 1-1279 isoform P21439-2 L556R): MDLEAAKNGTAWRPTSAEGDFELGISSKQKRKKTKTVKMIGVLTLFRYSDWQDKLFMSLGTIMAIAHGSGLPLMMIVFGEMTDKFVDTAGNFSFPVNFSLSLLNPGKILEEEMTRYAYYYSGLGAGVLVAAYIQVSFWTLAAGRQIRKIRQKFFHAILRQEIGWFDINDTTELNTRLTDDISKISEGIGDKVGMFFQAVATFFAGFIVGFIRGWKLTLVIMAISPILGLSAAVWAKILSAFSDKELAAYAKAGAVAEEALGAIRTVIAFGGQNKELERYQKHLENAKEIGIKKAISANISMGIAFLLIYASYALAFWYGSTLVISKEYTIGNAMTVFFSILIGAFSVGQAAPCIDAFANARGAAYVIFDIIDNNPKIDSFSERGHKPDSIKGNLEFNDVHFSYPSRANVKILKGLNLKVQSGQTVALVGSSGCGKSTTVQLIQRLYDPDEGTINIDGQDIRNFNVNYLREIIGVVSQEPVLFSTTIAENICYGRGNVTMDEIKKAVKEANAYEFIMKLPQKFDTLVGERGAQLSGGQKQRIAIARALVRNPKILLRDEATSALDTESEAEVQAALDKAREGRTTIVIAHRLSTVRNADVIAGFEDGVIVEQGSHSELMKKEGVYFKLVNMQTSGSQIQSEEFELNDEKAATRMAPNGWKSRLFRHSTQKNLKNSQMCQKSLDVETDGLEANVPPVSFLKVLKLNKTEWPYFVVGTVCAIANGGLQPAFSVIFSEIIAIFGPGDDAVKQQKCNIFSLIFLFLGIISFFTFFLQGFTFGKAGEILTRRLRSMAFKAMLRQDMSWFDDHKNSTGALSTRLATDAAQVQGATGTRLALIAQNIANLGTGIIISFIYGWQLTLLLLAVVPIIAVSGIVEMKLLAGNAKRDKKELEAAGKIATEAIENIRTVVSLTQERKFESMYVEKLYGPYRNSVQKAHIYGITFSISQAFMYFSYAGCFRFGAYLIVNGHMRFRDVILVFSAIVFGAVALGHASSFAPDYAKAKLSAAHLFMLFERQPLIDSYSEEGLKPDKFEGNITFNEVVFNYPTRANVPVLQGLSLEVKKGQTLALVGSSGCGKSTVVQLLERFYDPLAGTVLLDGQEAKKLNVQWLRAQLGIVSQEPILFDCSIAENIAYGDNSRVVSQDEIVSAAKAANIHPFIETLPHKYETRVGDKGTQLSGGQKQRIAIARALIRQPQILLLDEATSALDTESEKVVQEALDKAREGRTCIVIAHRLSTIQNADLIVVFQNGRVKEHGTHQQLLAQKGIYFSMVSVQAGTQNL
Procedure: as §1, §2

[4] = target: T3, ABCB4-WT (Homo sapiens, UniProt P21439); test: ABCB4-mediated phosphatidylcholine secretion, HEK cells expressing ABCB4-WT; assay type: cell-based; conditions: for inhibition of ABCB4-WT-mediated PC secretion compared to roscovitine: 10 μM and 25 μM; for log IC50 on the PC secretion activity of ABCB4-WT / IC50: from dose-response curves of FIG. 4C; for IC50: read-out: IC50 on the PC secretion activity of ABCB4-WT
T3 construct: The subcloning of wild type (WT) ABCB4, isoform A (NM_000443.3), into pcDNA3 vector has been described; expressed in transfected cells; host or cells: HEK-293
T3 sequence (P21439 1-1279 isoform P21439-2): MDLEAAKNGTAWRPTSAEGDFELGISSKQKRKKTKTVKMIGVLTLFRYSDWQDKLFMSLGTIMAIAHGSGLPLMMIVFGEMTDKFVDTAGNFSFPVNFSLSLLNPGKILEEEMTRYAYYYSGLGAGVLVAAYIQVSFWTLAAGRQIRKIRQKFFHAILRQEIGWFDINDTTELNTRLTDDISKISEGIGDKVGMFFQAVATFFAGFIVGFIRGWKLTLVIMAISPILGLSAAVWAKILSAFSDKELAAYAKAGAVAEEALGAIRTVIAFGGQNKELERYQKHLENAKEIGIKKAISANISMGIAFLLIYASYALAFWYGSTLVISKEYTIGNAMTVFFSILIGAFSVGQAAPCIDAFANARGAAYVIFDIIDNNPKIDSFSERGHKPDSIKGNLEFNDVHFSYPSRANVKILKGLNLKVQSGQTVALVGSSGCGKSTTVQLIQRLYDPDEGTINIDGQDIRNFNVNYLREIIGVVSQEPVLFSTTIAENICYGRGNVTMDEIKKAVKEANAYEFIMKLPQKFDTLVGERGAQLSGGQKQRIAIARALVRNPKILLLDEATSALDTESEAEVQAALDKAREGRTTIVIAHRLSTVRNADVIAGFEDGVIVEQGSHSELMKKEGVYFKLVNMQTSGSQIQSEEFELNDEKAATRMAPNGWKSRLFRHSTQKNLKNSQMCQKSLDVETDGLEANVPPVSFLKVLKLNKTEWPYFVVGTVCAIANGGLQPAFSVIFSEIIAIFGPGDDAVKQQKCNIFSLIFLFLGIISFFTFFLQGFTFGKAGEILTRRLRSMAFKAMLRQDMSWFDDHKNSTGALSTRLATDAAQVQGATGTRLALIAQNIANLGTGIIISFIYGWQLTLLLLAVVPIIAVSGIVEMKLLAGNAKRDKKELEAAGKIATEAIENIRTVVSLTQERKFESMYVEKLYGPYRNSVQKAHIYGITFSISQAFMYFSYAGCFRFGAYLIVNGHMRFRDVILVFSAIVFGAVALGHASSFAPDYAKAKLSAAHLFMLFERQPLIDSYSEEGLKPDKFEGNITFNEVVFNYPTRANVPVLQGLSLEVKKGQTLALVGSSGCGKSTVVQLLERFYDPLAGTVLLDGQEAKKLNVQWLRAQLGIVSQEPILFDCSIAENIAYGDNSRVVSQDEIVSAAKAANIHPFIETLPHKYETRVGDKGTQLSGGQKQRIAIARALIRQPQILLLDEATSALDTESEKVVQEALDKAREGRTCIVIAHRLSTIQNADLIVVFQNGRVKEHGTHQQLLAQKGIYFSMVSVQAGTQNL
Procedure: as §1, §2

[5] = target: ABCB4-I490T (Homo sapiens, UniProt P21439, I490T); test: Maturation of ABCB4-I490T by immunoblot in HEK cells; assay type: cell-based; parameters: The subcloning of wild type (WT) ABCB4, isoform A (NM_000443.3), into pcDNA3 vector has been described; expressed in transfected cells; host or cells: HEK-293 (immunoblot, PC secretion); conditions: 5 to 25 μM
Procedure: Western blots and indirect immunofluorescence were performed as previously described (2, 12). […] Saturated membranes were incubated with mouse monoclonal anti-ABCB4 (clone P3II-26; Enzo Life Sciences, Villeurbanne, France) or anti-α-tubulin (clone 1E4C11; ProteinTech, Manchester, United Kingdom) antibodies and then with peroxidase conjugated anti-mouse secondary antibodies (Sigma). Signals were detected with ECL prime western blotting detection reagent (GE Healthcare, Velizy-Villacoublay, France) and quantified in the linear range of detection using ImageJ 1.50i software (U.S. National Institutes of Health, Bethesda, Md.).

[6] = target: T1, ABCB4-I541F; test: Canalicular localisation of ABCB4-I541F by indirect immunofluorescence in HepG2 cells; assay type: cell-based; parameters: The subcloning of wild type (WT) ABCB4, isoform A (NM_000443.3), into pcDNA3 vector has been described; expressed in transfected cells; host or cells: HepG2 (immunofluorescence); conditions: 16 hours
Procedure: For indirect immunofluorescence, HepG2 cells were grown on glass coverslips and after transfection and treatments, they were fixed and permeabilized during 1 min at −20° C. in ice-cold methanol. Then ABCB4 and ABCC2 were immunolabelled using the mouse monoclonal P3II-26 (IgG2b) and M2I-4 (IgG1) antibodies (Enzo Life Sciences), respectively. […] For each experiment, all images were acquired with constant settings (acquisition time and correction of signal intensities).

[7] = target: T4, CLK1 (Homo sapiens, UniProt P49759); test: Protein kinase catalytic activity assay, CLK1; assay type: biochemical; conditions: read-out: IC50 of protein kinases, CLK1
T4 construct: made in house
T4 sequence (P49759 whole entry): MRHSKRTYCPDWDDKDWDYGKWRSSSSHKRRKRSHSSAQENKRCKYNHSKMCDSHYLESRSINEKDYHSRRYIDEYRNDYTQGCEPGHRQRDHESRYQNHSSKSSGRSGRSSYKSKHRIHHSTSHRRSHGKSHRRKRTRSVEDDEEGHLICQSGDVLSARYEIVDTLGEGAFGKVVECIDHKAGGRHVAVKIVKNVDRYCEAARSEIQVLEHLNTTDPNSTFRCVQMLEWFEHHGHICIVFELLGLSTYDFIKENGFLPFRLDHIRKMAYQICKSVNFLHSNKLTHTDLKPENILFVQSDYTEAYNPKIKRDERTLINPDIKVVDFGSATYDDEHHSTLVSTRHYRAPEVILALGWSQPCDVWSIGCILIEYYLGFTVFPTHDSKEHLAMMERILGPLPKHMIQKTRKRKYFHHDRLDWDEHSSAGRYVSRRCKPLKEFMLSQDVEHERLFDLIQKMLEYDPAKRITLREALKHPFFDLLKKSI

[8] = target: T2, ABCB4-L556R; test: Canalicular localisation of ABCB4-L556R by indirect immunofluorescence in HepG2 cells; assay type: cell-based; parameters: The subcloning of wild type (WT) ABCB4, isoform A (NM_000443.3), into pcDNA3 vector has been described; expressed in transfected cells; host or cells: HepG2 (immunofluorescence); conditions: 25 μM
Procedure: For indirect immunofluorescence, HepG2 cells were grown on glass coverslips and after transfection and treatments, they were fixed and permeabilized during 1 min at −20° C. in ice-cold methanol. Then ABCB4 and ABCC2 were immunolabelled using the mouse monoclonal P3II-26 (IgG2b) and M2I-4 (IgG1) antibodies (Enzo Life Sciences), respectively. AlexaFluor® 555 and AlexaFluor® 488 conjugated isotype-specific secondary antibodies (Thermo Fisher Scientific) and Hoechst 33342 (Thermo Fisher Scientific) were used to label ABCB4, ABCC2 and nuclei, respectively. Images were acquired using an IX83 inverted fluorescence microscope from Olympus (Rungis, France), equipped with a UPLSAPO 60XS2 silicone immersion objective and a Hamamatsu ORCA Flash4.0 digital CMOS camera, and analysed using Olympus CellSens Dimension Desktop version 1.16 and Adobe Photoshop version 8.0.1. For each experiment, all images were acquired with constant settings (acquisition time and correction of signal intensities).

[9] = target: T5, CDK2/A (Homo sapiens, UniProt P24941); test: Protein kinase catalytic activity assay, CDK2/cyclin A; assay type: biochemical; conditions: activator cyclin A; read-out: IC50 of protein kinases, CDK2/A
T5 construct: made in house

CC[C@@H](Nc1nc(NCc2cccc(F)c2)c2ncn(C3CCCC3)c2n1)C(=O)O [MRT2-235]
PC secretion activity of ABCB4-I541F (residual activity) [1]: 19.0±3.4% | IC50 [2]: 7 µM | PC secretion residual activity of ABCB4-L556R [3]: significant increase of the residual activity | inhibition of ABCB4-WT-mediated PC secretion compared to roscovitine [4]: less inhibitory than the original molecule | log IC50 on the PC secretion activity of ABCB4-WT [4]: −4.678 | IC50 [4]: 21 µM | rescue of the maturation of ABCB4-I490T [5]: dose-dependent rescue of the maturation | relocalisation of ABCB4-I541F at bile canaliculi ([6]; 25 μM): partial relocalisation of ABCB4-I541F at bile canaliculi | relocalisation of ABCB4-I541F at bile canaliculi ([6]; 100 μM): partial relocalisation of ABCB4-I541F at bile canaliculi | IC50 [7]: 11 µM | relocalisation of ABCB4-L556R at bile canaliculi [8]: partially relocalised at bile canaliculi | IC50 [9]: 5.9 µM

CC[C@@H](Nc1nc(NCc2cccc(Cl)c2)c2ncn(C3CCCC3)c2n1)C(=O)O [MRT2-237]
PC secretion activity of ABCB4-I541F (residual activity) [1]: 13.0±3.5% | IC50 [2]: 3.33 µM | PC secretion residual activity of ABCB4-L556R [3]: significant increase of the residual activity | inhibition of ABCB4-WT-mediated PC secretion compared to roscovitine [4]: less inhibitory than the original molecule | log IC50 on the PC secretion activity of ABCB4-WT [4]: −4.533 | IC50 [4]: 29.3 µM | rescue of the maturation of ABCB4-I490T [5]: dose-dependent rescue of the maturation | relocalisation of ABCB4-I541F at bile canaliculi ([6]; 25 μM): partial relocalisation of ABCB4-I541F at bile canaliculi | relocalisation of ABCB4-I541F at bile canaliculi ([6]; 100 μM): partial relocalisation of ABCB4-I541F at bile canaliculi | IC50 [7]: 8.5 µM | relocalisation of ABCB4-L556R at bile canaliculi [8]: partially relocalised at bile canaliculi | IC50 [9]: 3.4 µM

CC[C@@H](Nc1nc(NCc2ccc(Cl)c(F)c2)c2ncn(C3CCCC3)c2n1)C(=O)O [MRT2-243]
PC secretion activity of ABCB4-I541F (residual activity) [1]: 22.5±6.2% | IC50 [2]: 6.1 µM | PC secretion residual activity of ABCB4-L556R [3]: significant increase of the residual activity | inhibition of ABCB4-WT-mediated PC secretion compared to roscovitine [4]: less inhibitory than the original molecule | log IC50 on the PC secretion activity of ABCB4-WT [4]: −4.754 | IC50 [4]: 17.6 µM | rescue of the maturation of ABCB4-I490T [5]: dose-dependent rescue of the maturation | relocalisation of ABCB4-I541F at bile canaliculi ([6]; 25 μM): partial relocalisation of ABCB4-I541F at bile canaliculi | relocalisation of ABCB4-I541F at bile canaliculi ([6]; 100 μM): partial relocalisation of ABCB4-I541F at bile canaliculi | IC50 [7]: 20 µM | relocalisation of ABCB4-L556R at bile canaliculi [8]: partially relocalised at bile canaliculi | IC50 [9]: 3 µM
